Like-named read-outs stand apart in the source and are kept apart here.
How the values were obtained:
K-562 cells = test: cell-associated LPon fluorescence by flow cytometry (ligand release); type: cell-based, human; details: 24 h, 10 μM, normoxic
Procedure: Prior to the evaluation of the anticancer activity of our novel derivatives in cell culture models, we examined the stability of Co(acac)2LPon and Co(Meacac)2LPon in the presence of cells under normoxic conditions. The stability was determined by the appearance of LPon-associated fluorescence (vide supra) in BCR-ABL-driven K-562 leukemia cells via flow cytometry. […] Despite significant LPon-release from the two complexes over time (up to 24 h), in case of Co(Meacac)2LPon cell-associated fluorescence remained more than 7.5-fold lower after 24 h as compared to the free ligand.
Next, the impact of hypoxia on the stability of our novel derivatives was evaluated by monitoring intracellular fluorescence intensities under normoxic (21% O2) vs. hypoxic (0.1% O2) conditions. […] Hypoxic fluorescence activation in case of both cobalt(III) complexes was time-dependent, reaching significance after 6 h of compound incubation and resulting in 2- to 4-fold higher intensities.
Cells were seeded (1 × 10^6 cells per well) in 96-well plates, dissolved compounds were added and cells were incubated under normoxic or hypoxic cell culture conditions. Samples were measured on a BD LSRFortessa X-20 cell analyzer high throughput sampler (HTS) (BD Biosciences, East Rutherford, NJ, USA). Compound fluorescence was detected using 405 nm excitation and pacific blue (450/50 nm) band pass emission filters. […]

cyclic voltammetry = type: physicochemical; details: DMF, 0.2 M [n-Bu4N][BF4], 1.5 mM complex, scan rate 100 mV s^-1
Procedure: Since the redox potential is a crucial characteristic for the activation of cobalt(III)-based prodrugs systems, we investigated the novel complexes by cyclic voltammetry in comparison to Co(acac)2LEGFR. Measurements were performed in dimethylformamide (DMF) (+0.2 M [n-Bu4N][BF4]) at a scan speed of 100 mV s^−1. […] Even at a higher scan speed of 1000 mV s^−1, the redox processes were still completely irreversible for all complexes (Fig. S5 ^†).
The compounds were dissolved in DMF (+0.2 M [n-Bu4N][BF4]) to obtain a final concentration of 1.5 mM. Electrochemical experiments were conducted on an EG&G PARC 273A potentiostat/galvanostat with a scan rate of 100–1000 mV s^−1 at room temperature. Argon was bubbled through the solution before every measurement to remove oxygen. A three-electrode configuration cell was used with a glassy carbon electrode as working electrode, which was polished before every measurement. The reference electrode was Ag/Ag^+/ACN (10 mM AgNO3) and the auxiliary electrode was a platinum wire. The potentials were referenced to an internal standard redox couple of ferrocenium/ferrocene and calculated to the NHE (E1/2 = +0.72 V vs. NHE).[63] […] Redox potentials measured relative to the Ag/AgCl/KCl (3.5 M) reference electrode and converted to the NHE using +0.205 V. Measurements were at least repeated three times and the mean values were calculated.

[1] = serum stability in fetal calf serum (HPLC-MS); type: in vitro ADME; details: 37 °C
Procedure: Therefore, we only investigated the stability of the novel complexes in fetal calf serum (FCS). As reference again Co(acac)2LEGFR[26] was included. The complexes were dissolved in 50 mM phosphate puffer and mixed 1 : 10 with fetal calf serum (FCS; buffered with 150 mM phosphate buffer to keep a stable pH of 7.4) to a final concentration of 50 μM. The samples were incubated at 37 °C and after 0, 2, 4, 6, 24 and 26 h extracted with acetonitrile and measured by HPLC-MS. […] This indeed confirms, that by avoiding the direct attachment of the ethylenediamine moiety to an aromatic ring system, complexes with much higher stability can be generated. Since no distinct difference in stability between Co(acac)2LPon and Co(Meacac)2LPon within 26 h could be observed, measurements were repeated up to 72 h.
For serum stability measurements, 135 μL FCS, buffered with 150 mM phosphate (Na2HPO4/NaH2PO4) to maintain a pH value of 7.4, were mixed with 15 μL of a 500 μM stock solution of the respective complex in 50 mM phosphate buffer to reach a final concentration of 50 μM. The samples were incubated at 37 °C. At different time points to 20 μL serum 40 μL of ACN were added. After vigorously shaking for 2 min the suspension was centrifuged at 6000 rpm for 10 min. The supernatant was taken with a syringe and directly measured via HPLC-MS. The samples were analyzed on an Agilent 1260 Infinity system using a Waters Atlantis T3 column (150 mm × 4.6 mm) coupled to a Bruker Amazon SL ESI-IT mass spectrometer. Water and acetonitrile (both containing 0.1% formic acid) were used as eluents with a gradient of 1–99% acetonitrile within 29 min.

H1975 = details: cited from earlier work
A431 = details: cited from earlier work
UM-UC-14 cells = test: ligand release by UV fluorescence microscopy; type: cell-based, human; details: 10 μM, 24 h, UM-UC-14, fluorescence microscopy
Procedure: The enhanced stability of Co(acac)2LPon under normoxia and its hypoxia-induced ligand release was subsequently confirmed by fluorescence microscopy. Fluorescence intensities indicated a ∼2.8-fold decreased stability of the cobalt(III) complex under hypoxic vs. normoxic cell culture conditions.
UM-UC-14 cells were seeded (2.5 × 10^5 cells per well) in 12-well plates and after 24 h recovery treated with 10 μM of compounds. After 24 h incubation, the drug solutions were removed, cells were washed with PBS and microphotographs of the different treatments were taken using UV fluorescence microscopy (Nikon Eclipse Ti2 microscope with a DAPI filter and a high-pressure mercury lamp) and a 20× objective. The level of cellular fluorescence was determined from fluorescence microscopy images using ImageJ software.
Figure S9: Ligand release of Co(acac)2LPon under normoxic and hypoxic cell culture conditions in comparison to LPon using UV fluorescence microscopy. UM-UC-14 cells were incubated with 10 µM of compounds for 24 h. Images of the different treatments were taken by UV fluorescence microcopy (20X objective) and the corrected total cell fluorescence was evaluated using ImageJ software. Data in Figure S9B are given as means ± SD of ten analyzed microphotographs per compound. Statistical significance was calculated by unpaired t test with p < .05(*). […]

[2] = tested on: BCR-ABL-positive K-562 leukemic cells; test: MTT vitality assay, 72 h, normoxic vs hypoxic; type: cell-based; details: Homo sapiens, K562, 72 h, printed in picture Fig. 9A, read-out: IC50, K-562 cell viability
Procedure: In case of hypoxic cell culture conditions, plated and treated cells were incubated at 37 °C, 5% CO2 and 0.1% O2 (ProOx Model C21 system, BioSpherix) in humidified incubators for the indicated time point before analysis. All investigated compounds were dissolved in dimethyl sulfoxide (DMSO) as 10 mM stock solutions and were stored at −20 °C. Dilutions in culture media supplemented with 10% fetal calf serum were made immediately before the experiments at the indicated concentrations. Corresponding dilutions of DMSO were used as untreated vehicle controls.
Cells were seeded (3–7 × 10^4 cells per well) in 96-well plates and after 24 h recovery treated with increasing concentrations of compounds in triplicates. After 72 h drug exposure under normoxic or hypoxic cell culture conditions (0.1% O2) (ProOx Model C21 system, BioSpherix), the proportion of viable cells was determined by 3-(4,5-dimethylthiazol-2-yl)-2,5-diphenyltetrazolium bromide (MTT)-vitality assay (EZ4U, Biomedica, Vienna, Austria) or by luminescence assay based on adenosine triphosphate quantification (CellTiter-Glo, Promega, Madison, Wisconsin) following the manufacturer's recommendations. […] MTT-derived cytotoxicity was expressed as IC50 values calculated from full dose–response curves using GraphPad Prism software (La Jolla, CA).

ABL1 = ABL1 (Homo sapiens, UniProt P00519); test: cell-free kinase inhibition assay (Z'-LYTE, SelectScreen); type: biochemical; details: 10-fold excess of ATP, 1% DMSO, read-out: IC50 against ABL1
From the text: (§1) The test compounds were screened in a final concentration of 1% DMSO using the Z′-LYTE® Assay.

FGFR1 = FGFR1 (Homo sapiens, UniProt P11362); test: as above; type: biochemical
From the text: as §1

[3] = tested on: p-ERK1/2 and p-S6 in K-562 cells; test: western blot of downstream signalling, 12 h; type: cell-based, human; details: K-562, 12 h, western blot
Procedure: Fig. 10 Impact of the cobalt(III) complexes on the ERK1/2 and S6 under normoxic and hypoxic conditions. K-562 cells were treated with the compounds, after 12 h cell lysates were prepared and protein expression as well as phosphorylation levels of downstream pathways (p-ERK1/2 and p-S6) analyzed by western blotting. One representative experiment out of three is shown. The ratio of phosphorylated to total protein is given between the respective lanes.
K-562 cells were plated (5 × 10^5 cells per well) in 6-well plates and allowed to recover for 24 h. Subsequently, the cells were treated with the drugs in different concentrations. After 12 h cells were harvested, proteins were isolated, resolved by sodium dodecyl sulfate polyacrylamide gel electrophoresis (SDS/PAGE), and transferred onto a polyvinylidene difluoride membrane for western blotting. The following antibodies were used: ERK1/2 (p44/42) rabbit monoclonal antibody (mAb) (137F5, #4695), phospho-ERK1/2 rabbit mAb (Thr202/Tyr204) (20G11, #4376), phospho-S6 rabbit pAb (Ser240/244, #2215) (Cell Signaling Technology, Beverly, MA, USA), S6 mouse mAb (C-8. #sc-74459) (Santa Cruz Biotechnology, TX, USA) and β-actin mouse mAb (#A5441, Sigma). All primary antibodies were used in 1 : 1000 dilutions (in Tris-buffered saline containing 0.1% Tween20 (TBST) + 3% bovine serum albumin (BSA)). Secondary goat anti-mouse-IgG (Fc specific)-peroxidase antibody (#A0168, Sigma) and horseradish peroxidase(HRP)-labeled mouse anti-rabbit IgG (#sc-2357, Santa Cruz Biotechnology) were used at working dilutions of 1 : 10 000 (in TBST + 1% BSA).

[4] = normoxic as well as hypoxic conditions

Sequence of FGFR1 (P11362 22-822): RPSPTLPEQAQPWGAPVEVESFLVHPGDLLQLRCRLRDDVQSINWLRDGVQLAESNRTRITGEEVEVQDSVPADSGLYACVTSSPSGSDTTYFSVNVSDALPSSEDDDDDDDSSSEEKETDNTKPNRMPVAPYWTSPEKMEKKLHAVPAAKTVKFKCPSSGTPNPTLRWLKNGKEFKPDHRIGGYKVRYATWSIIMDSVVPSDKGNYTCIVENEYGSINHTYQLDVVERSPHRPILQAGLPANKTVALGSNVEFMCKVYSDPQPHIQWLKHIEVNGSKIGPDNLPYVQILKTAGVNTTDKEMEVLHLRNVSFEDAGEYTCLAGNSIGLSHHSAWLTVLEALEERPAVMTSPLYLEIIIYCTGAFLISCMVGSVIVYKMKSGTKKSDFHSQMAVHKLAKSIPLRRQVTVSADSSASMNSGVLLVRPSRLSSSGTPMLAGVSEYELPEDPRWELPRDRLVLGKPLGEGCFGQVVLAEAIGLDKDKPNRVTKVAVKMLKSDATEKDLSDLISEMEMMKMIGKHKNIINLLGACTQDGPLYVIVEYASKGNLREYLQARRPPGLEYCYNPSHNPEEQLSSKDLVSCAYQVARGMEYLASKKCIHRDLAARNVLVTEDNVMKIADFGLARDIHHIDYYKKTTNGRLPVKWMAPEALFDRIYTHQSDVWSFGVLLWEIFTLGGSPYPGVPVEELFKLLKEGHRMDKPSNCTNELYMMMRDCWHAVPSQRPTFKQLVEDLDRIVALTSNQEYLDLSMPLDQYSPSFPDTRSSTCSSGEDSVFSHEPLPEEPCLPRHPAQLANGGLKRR
Sequence of ABL1 (P00519 whole entry): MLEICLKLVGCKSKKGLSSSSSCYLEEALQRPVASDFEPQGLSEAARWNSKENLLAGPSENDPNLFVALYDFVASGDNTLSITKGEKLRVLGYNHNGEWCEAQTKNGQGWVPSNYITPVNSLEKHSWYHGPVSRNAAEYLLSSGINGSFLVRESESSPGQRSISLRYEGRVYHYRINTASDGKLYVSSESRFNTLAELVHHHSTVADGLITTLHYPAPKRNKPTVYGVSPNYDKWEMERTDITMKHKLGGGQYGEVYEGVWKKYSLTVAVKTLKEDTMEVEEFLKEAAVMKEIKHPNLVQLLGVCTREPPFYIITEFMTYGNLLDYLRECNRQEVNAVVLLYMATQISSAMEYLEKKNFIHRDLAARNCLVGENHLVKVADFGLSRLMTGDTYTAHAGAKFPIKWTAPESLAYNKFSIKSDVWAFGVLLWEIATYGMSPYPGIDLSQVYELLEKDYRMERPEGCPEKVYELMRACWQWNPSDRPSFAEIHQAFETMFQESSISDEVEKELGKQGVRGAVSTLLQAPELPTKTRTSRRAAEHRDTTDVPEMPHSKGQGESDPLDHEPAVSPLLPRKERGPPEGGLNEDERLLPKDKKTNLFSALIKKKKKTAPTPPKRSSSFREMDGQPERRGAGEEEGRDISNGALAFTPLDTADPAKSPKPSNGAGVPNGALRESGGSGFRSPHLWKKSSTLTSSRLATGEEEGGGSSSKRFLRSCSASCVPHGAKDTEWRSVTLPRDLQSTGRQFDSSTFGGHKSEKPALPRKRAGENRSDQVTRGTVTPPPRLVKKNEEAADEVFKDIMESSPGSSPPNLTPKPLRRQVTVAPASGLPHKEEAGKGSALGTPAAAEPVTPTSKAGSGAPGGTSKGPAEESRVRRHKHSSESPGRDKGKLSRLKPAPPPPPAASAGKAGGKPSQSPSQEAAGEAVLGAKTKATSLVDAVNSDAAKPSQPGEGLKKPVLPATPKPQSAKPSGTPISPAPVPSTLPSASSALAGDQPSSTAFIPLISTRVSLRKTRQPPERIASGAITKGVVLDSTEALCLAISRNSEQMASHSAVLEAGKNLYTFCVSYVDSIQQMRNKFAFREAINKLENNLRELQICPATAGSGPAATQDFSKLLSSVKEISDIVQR

Question: What does the source list for `CC(=O)C(C)=C(C)[O-].CC(=O)C(C)=C(C)[O-].Cc1ccc(C(=O)Nc2ccc(CNCCN)c(C(F)(F)F)c2)cc1C#Cc1cnc2cccnn12.O=C(O)C(F)(F)F.[Co+3]` [Co(Meacac)2LPon, Bis(3-methyl-2,4-pentanedionato) N-(4-(((2-aminoethyl)amino)methyl)-3-(trifluoromethyl)phenyl)-3-(imidazo[1,2-b]pyridazin-3-ylethynyl)-4-methylbenzamide cobalt(III) 2,2,2-trifluoroacetate]?
Answer: cell-associated fluorescence, fold lower than the free ligand (K-562 cells): more than 7.5 fold; cathodic peak potential (Co(III) to Co(II), irreversible) (cyclic voltammetry): −442 mV vs. NHE; intact complex remaining in FCS ([1]; 26 h, pH 7.4, 50 μM): ~90%; intact compound remaining in FCS ([1]; 72 h, pH 7.4): ~80%

Question: Which results are given for `[Cl-].[Cl-].[Co+2]` [CoCl2]?
Answer: cytotoxic activity (H1975): no significant cytotoxic activity; cytotoxic activity (A431): no significant cytotoxic activity

Question: For `Cc1ccc(C(=O)Nc2ccc(CNCCN)c(C(F)(F)F)c2)cc1C#Cc1cnc2cccnn12` [LPon, N-(4-(((2-Aminoethyl)amino)methyl)-3-(trifluoromethyl)phenyl)-3-(imidazo[1,2-b]pyridazin-3 ylethynyl)-4-methylbenzamide·3TFA], which “fluorescence intensity change (decreased stability) hypoxic vs. normoxic” value (UM-UC-14 cells) is on record?
Answer: Its value is “remained unaffected”.

Question: And the IC50 ([2]; hypoxic (H, 0.1% O2))?
Answer: Its IC50 is 3.67 nM.

Question: And the IC50 ([2]; normoxic (N, 21% O2))?
Answer: The IC50 was 4.57 nM.

Question: What about the IC50 (ABL1) of the same compound?
Answer: Its IC50 is 1.93 nM.

Question: What about the “factor by which FGFR inhibition is weaker than ponatinib” value (FGFR1; cell-free IC50 ratio vs ponatinib) of the same compound?
Answer: The value was roughly 5.

Question: What about the IC50 (FGFR1; cell-free, 10-fold excess of ATP, 1% DMSO, read-out: IC50 against FGFR1) of the same compound?
Answer: Its IC50 is 25.9 nM.

Question: And the “activity on ERK1/2 and S6 phosphorylation, normoxic vs hypoxic” value [3]?
Answer: The value was “equally active under the two oxygen conditions”.

Question: Which cytotoxic activity (H1975; [4]) does the source give for `CC(=O)[CH-]C(C)=O.CC(=O)[CH-]C(C)=O.NCCN.[Co+2]` [[Co(II)(acac)2en]] here?
Answer: The cytotoxic activity was “no significant cytotoxic activity”.

Question: And the cytotoxic activity (A431; [4])?
Answer: Its cytotoxic activity is “no significant cytotoxic activity”.

Question: For `CC(=O)[CH-]C(C)=O.CC(=O)[CH-]C(C)=O.F[P-](F)(F)(F)(F)F.NCCN.[Co+3]` [[Co(III)(acac)2en]PF6], which cytotoxic activity (H1975; [4]) is on record?
Answer: The cytotoxic activity was “no significant cytotoxic activity”.

Question: What about the cytotoxic activity (A431; [4]) of the same compound?
Answer: Its cytotoxic activity is “no significant cytotoxic activity”.

Reference: publication PMC8129988 (Inorganic Chemistry Frontiers, 2021)
